Measured values taken from patent US20230390384A1 (priority 2020, published 2023).
Entries after “also recorded” stand apart in the source; their conditions may differ.

System: RBD, a South African mutant antigen of COVID-19
Design: species or system SARS-CoV-2
Settings: in vivo

Q: For FSL-1, which “antigen-specific antibody titer (RBD South African mutant)” value is on record?
A: higher antibody titer; also recorded: highest antibody titer

Q: With “N-palmitoyl-S-[2,3-bis(palmitoyloxy)-(2RS)-propyl]-[R]-cystein-SKKKK [Pam3CSK4]” as the substance, how does the “antigen-specific antibody titer (RBD South African mutant)” value read?
A: higher antibody titer; also recorded: highest antibody titer
